Active and inactive are the calls of the source. No cut-off for these calls is given here.
What was measured:
[1] = test system: Mus musculus; test: Toxicity in ICR mouse assessed as rewarding effect by measuring increase in time spent in drug-paired compartment at 1 to 10 mg/kg, sc administered every 2 days for 6 days measured 24 hrs post last dose by conditioned place preference assay; type: organism-based; set-up: dose 1-10 mg/kg, route subcutaneous; settings: in vivo
[2] = test system: Mus musculus; test: Toxicity in ICR mouse assessed as effect on global effect at 1 to 10 mg/kg, sc administered every 2 days for 6 days measured 24 hrs post last dose during conditioning training; type: organism-based; set-up: dose 1-10 mg/kg, route subcutaneous; settings: in vivo
[3] = test system: Mus musculus; test: Toxicity in ICR mouse assessed as rewarding effect by measuring increase in time spent in drug-paired compartment at 10 mg/kg, sc administered every 2 days for 6 days measured 24 hrs post last dose by conditioned place preference assay; type: organism-based; set-up: dose 10 mg/kg, route subcutaneous; settings: in vivo
[4] = test system: Mus musculus; test: Antinociceptive activity in ICR mouse assessed as thermal-stimulus induced tail flick latency at 3 to 10 mg/kg, sc measured up to 4 hrs relative to control; type: functional, organism-based
[5] = test system: Mus musculus; test: Toxicity in ICR mouse assessed as increase in global effect at 10 mg/kg, sc administered every 2 days for 6 days measured 24 hrs post last dose during conditioning training; type: organism-based; set-up: dose 10 mg/kg, route subcutaneous; settings: in vivo

SMILES | Activity [1] | Activity [2] | Activity [3] | Activity [4] | Activity [5]
CCC1C(=O)N(C2CCN([C@H]3CC[C@@H]4CCCc5cccc3c54)CC2)c2ccccc21 (mixture of isomers) | Non-toxic | Non-toxic |  |  | 
CN1CC[C@]23c4c5ccc(O)c4O[C@H]2[C@@H](O)C=C[C@H]3[C@H]1C5 [MORPHINE] |  |  | Toxic | Active | Toxic
